Laboratory results taken from patent US9227971B2, “Pyrazolo[1,5-a]pyrimidine compounds as mTOR inhibitors” (Merck Sharp & Dohme Corp., priority 2010, dated 2016).
Where two headings read alike, the source gives them in different places.

Legend:
[1] = test system: phosphorylated 4E-BP1 Thr37/46 (p4E-BP1 Thr37/46), mTORC1 activity, PC3 cells; assay: mTOR target engagement assay, immunofluorescent cell-based, p4E-BP1 Thr37/46 readout (mTORC1 activity); conditions: read-out: p4E-BP1 Thr37/46 IC50
How it was run: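 Cell-based immunofluorescence in PC3 cells: serially diluted compounds (0.25% DMSO, 5% FBS) applied for ninety minutes at 37° C before fixation and overnight 4° C staining of p4E-BP1 Thr37/46. Untreated DMSO wells set maximal phosphorylation; IC50 obtained by logistic fitting.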

[2] = test system: phosphorylated AKT Ser473 (pAKT S473), mTORC2 activity, PC3 cells; assay: mTOR target engagement assay, immunofluorescent cell-based, pAKT S473 readout (mTORC2 activity)
How it was run: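 After blocking, cells were stained overnight at 4 °C with anti-pAKT S473 antibody, then a fluorescent secondary; inhibition was read as reduced fluorescence intensity.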

[3] = Homo sapiens, PC-3, PC3 cells, compound treatment ninety minutes at 37° C.
[4] = Homo sapiens, PC-3, Table 3-1, PC3 cells
[5] = Homo sapiens, PC-3, Table 7-4, PC3 cells

| Molecule | IC50 [1, 4] | IC50 [2, 4] | also measured |
| --- | --- | --- | --- |
| CC(=O)c1c([C@@H]2C[C@H]3CC[C@@H](C2)N3C(=O)c2cncc(O)c2)nc2c(-c3ccc(-c4ccccc4)nc3)cnn2c1N [Compound 1.1.50, 1-(7-amino-5-((1R,3s,5S)-8-(5-hydroxynicotinoyl)-8-azabicyclo[3.2.1]octan-3-yl)-3-(6-phenylpyridin-3-yl)pyrazolo[1,5-a]pyrimidin-6-yl)ethanone] |  |  | IC50 [1, 3]: 100 to 1000 nM; IC50 [2, 3]: 100 to 1000 nM |
| CS(=O)(=O)c1c([C@@H]2C[C@H]3CC[C@@H](C2)N3C(=O)c2cc(CO)n[nH]2)nc2c(-c3ccc(-c4ccccc4)nc3)cnn2c1N [Compound 3.84, ((1R,3s,5S)-3-(7-amino-6-(methylsulfonyl)-3-(6-phenylpyridin-3-yl)pyrazolo[1,5-a]pyrimidin-5-yl)-8-azabicyclo[3.2.1]octan-8-yl)(3-(hydroxymethyl)-1H-pyrazol-5-yl)methanone] | 100 to 1000 nM | 1 to 100 nM |  |
| COc1ccc(-c2ccc(-c3cnn4c(N)c(S(C)(=O)=O)c([C@@H]5C[C@H]6CC[C@@H](C5)N6C(=O)c5nnc[nH]5)nc34)cn2)cn1 [Compound 3.164, ((1R,3s,5S)-3-(7-amino-3-(6′-methoxy-2,3′-bipyridin-5-yl)-6-(methylsulfonyl)pyrazolo[1,5-a]pyrimidin-5-yl)-8-azabicyclo[3.2.1]octan-8-yl)(4H-1,2,4-triazol-3-yl)methanone] | 100 to 1000 nM | 100 to 1000 nM |  |
| CC(=O)c1c([C@@H]2C[C@H]3CC[C@@H](C2)N3C(=O)c2nnc[nH]2)nc2c(-c3ccc([C@H](C)O)nc3)cnn2c1N [Compound 7.34, 1-(5-((1R,3s,5S)-8-(4H-1,2,4-triazole-3-carbonyl)-8-azabicyclo[3.2.1]octan-3-yl)-7-amino-3-(6-((S)-1-hydroxyethyl)pyridin-3-yl)pyrazolo[1,5-a]pyrimidin-6-yl)ethanone] |  |  | IC50 [1, 5]: 1 to 100 nM; IC50 [2, 5]: 1 to 100 nM |
| CS(=O)(=O)c1c([C@H]2CC3CC[C@H](C2)N3C(=O)NO)nc2c(-c3ccc(-c4ccccc4)nc3)cnn2c1N [Compound 3.172, (1R,3s,5S)-3-(7-amino-6-(methylsulfonyl)-3-(6-phenylpyridin-3-yl)pyrazolo[1,5-a]pyrimidin-5-yl)-N-hydroxy-8-azabicyclo[3.2.1]octane-8-carboxamide] | 1 to 100 nM | 100 to 1000 nM |  |
| CS(=O)(=O)c1c([C@@H]2C[C@H]3CC[C@@H](C2)N3C(=O)c2nnc[nH]2)nc2c(-c3ccc(-c4ncccc4F)nc3)cnn2c1N [Compound 3.48, ((1R,3s,5S)-3-(7-amino-3-(3′-fluoro-2,2′-bipyridin-5-yl)-6-(methylsulfonyl)pyrazolo[1,5-a]pyrimidin-5-yl)-8-azabicyclo[3.2.1]octan-8-yl)(4H-1,2,4-triazol-3-yl)methanone] | 1 to 100 nM | 1 to 100 nM |  |
| CS(=O)(=O)c1c([C@@H]2C[C@H]3CC[C@@H](C2)N3C(=O)c2nnc[nH]2)nc2c(-c3ccc(-c4ccc5c(c4)OC(F)(F)O5)nc3)cnn2c1N [Compound 3.53, ((1R,3s,5S)-3-(7-amino-3-(6-(2,2-difluorobenzo[d][1,3]dioxol-5-yl)pyridin-3-yl)-6-(methylsulfonyl)pyrazolo[1,5-a]pyrimidin-5-yl)-8-azabicyclo[3.2.1]octan-8-yl)(4H-1,2,4-triazol-3-yl)methanone] | 1000 to 10000 nM | 100 to 1000 nM |  |
| CS(=O)(=O)c1c([C@@H]2C[C@H]3CC[C@@H](C2)N3C(=O)CO)nc2c(-c3cn[nH]c3)cnn2c1N [Compound 3.114, 1-((1R,3s,5S)-3-(7-amino-6-(methylsulfonyl)-3-(1H-pyrazol-4-yl)pyrazolo[1,5-a]pyrimidin-5-yl)-8-azabicyclo[3.2.1]octan-8-yl)-1-hydroxyethanone] | > 10000 nM | > 10000 nM |  |
| CC(=O)c1c([C@@H]2C[C@H]3CC[C@@H](C2)N3C(=O)CO)nc2c(-c3ccc(-c4ccc(F)cc4F)nc3)cnn2c1N [Compound 1.1.164, 1-((1R,3s,5S)-3-(6-acetyl-7-amino-3-(6-(2,4-difluorophenyl)pyridin-3-yl)pyrazolo[1,5-a]pyrimidin-5-yl)-8-azabicyclo[3.2.1]octan-8-yl)-2-hydroxyethanone] |  |  | IC50 [1, 3]: 100 to 1000 nM; IC50 [2, 3]: 1 to 100 nM |
| CC(=O)c1c([C@H]2CC3CC[C@H](C2)N3C(=O)c2nnc[nH]2)nc2c(-c3ccc(C(O)C(F)(F)F)nc3)cnn2c1N (stereo partly drawn) [Compound 7.65, 1-(5-((1R,3s,5S)-8-(4H-1,2,4-triazole-3-carbonyl)-8-azabicyclo[3.2.1]octan-3-yl)-7-amino-3-(6-(2,2,2-trifluoro-1-hydroxyethyl)pyridin-3-yl)pyrazolo[1,5-a]pyrimidin-6-yl)ethanone] |  |  | IC50 ([1]; Homo sapiens, PC-3, PC3 cells): 100 to 1000 nM; IC50 ([2]; Homo sapiens, PC-3, PC3 cells): 100 to 1000 nM |
| CC(=O)c1c([C@]2(O)C[C@H]3CC[C@@H](C2)N3C(=O)c2nnc[nH]2)nc2c(-c3ccc(-c4ccccc4)nc3)cnn2c1N [Compound 8.21, 1-(7-amino-5-((1R,3r,5S)-3-hydroxy-8-(4H-1,2,4-triazole-3-carbonyl)-8-azabicyclo[3.2.1]octan-3-yl)-3-(6-phenylpyridin-3-yl)pyrazolo[1,5-a]pyrimidin-6-yl)ethanone] |  |  | IC50 ([1]; Homo sapiens, PC-3, PC3 cells): 1000 to 10000 nM; IC50 ([2]; Homo sapiens, PC-3, PC3 cells): 1000 to 10000 nM |
| CC(=O)c1c([C@@H]2C[C@H]3CC[C@@H](C2)N3C(=O)CO)nc2c(-c3ccc(C)nc3)cnn2c1N [Compound 1.1.90, 1-((1R,3s,5S)-3-(6-acetyl-7-amino-3-(6-methylpyridin-3-yl)pyrazolo[1,5-a]pyrimidin-5-yl)-8-azabicyclo[3.2.1]octan-8-yl)-2-hydroxyethanone] |  |  | IC50 [1, 3]: 1000 to 10000 nM; IC50 [2, 3]: 1000 to 10000 nM |
| ((1R,3s,5S)-3-(7-amino-6-(methylsulfonyl)-3-(6-(5-methylthiazol-2-yl)pyridin-3-yl)pyrazolo[1,5-a]pyrimidin-5-yl)-8-azabicyclo[3.2.1]octan-8-yl)(5-methyl-4H-1,2,4-triazol-3-yl)methanone [Compound 3.183] |  |  | IC50 ([1]; Table 3-1, PC3 cells): 100 to 1000 nM; IC50 ([2]; Table 3-1, PC3 cells): 100 to 1000 nM |
| CS(=O)(=O)c1c([C@@H]2C[C@H]3CC[C@@H](C2)N3C(=O)CO)nc2c(-c3ccc(CO)c(F)c3)cnn2c1N [Compound 8.43, 1-((1R,3s,5S)-3-(7-amino-3-(3-fluoro-4-(hydroxymethyl)phenyl)-6-(methylsulfonyl)pyrazolo[1,5-a]pyrimidin-5-yl)-8-azabicyclo[3.2.1]octan-8-yl)-2-hydroxyethanone] |  |  | IC50 ([1]; Homo sapiens, PC-3, PC3 cells): 100 to 1000 nM; IC50 ([2]; Homo sapiens, PC-3, PC3 cells): 100 to 1000 nM |
| Cc1nnc(C(=O)N2[C@@H]3CC[C@H]2C[C@H](c2nc4c(-c5ccc(-c6ncc(C)s6)nc5)cnn4c(N)c2S(C)(=O)=O)C3)[nH]1 [Compound 3.184, ((1R,3s,5S)-3-(7-amino-6-(methylsulfonyl)-3-(6-(5-methylthiazol-2-yl)pyridin-3-yl)pyrazolo[1,5-a]pyrimidin-5-yl)-8-azabicyclo[3.2.1]octan-8-yl)(5-methyl-4H-1,2,4-triazol-3-yl)methanone] | 1 to 100 nM | 1 to 100 nM |  |
| CS(=O)(=O)c1c([C@@H]2C[C@H]3CC[C@@H](C2)N3C(=O)c2ccc(O)cn2)nc2c(-c3ccc(-c4ccccc4)nc3)cnn2c1N [Compound 3.16, ((1R,3s,5S)-3-(7-amino-6-(methylsulfonyl)-3-(6-phenylpyridin-3-yl)pyrazolo[1,5-a]pyrimidin-5-yl)-8-azabicyclo[3.2.1]octan-8-yl)(5-hydroxypyridin-2-yl)methanone] | 100 to 1000 nM | 1 to 100 nM |  |
